From ChEMBL document CHEMBL4376804, “Review of Transient Receptor Potential Canonical (TRPC5) Channel Modulators and Diseases” (J Med Chem, 2019)

Experiments:
Assay type in all cases: cell-based
[1] = target: T1, Short transient receptor potential channel 6 (Mus musculus, UniProt Q61143); assay: Inhibition of mouse TRPC6 expressed in HEK293 cells co-expressing M5 receptor assessed as reduction in carbachol-induced membrane potential by FMP-2 dye based assay
T1 sequence (Q61143 whole entry): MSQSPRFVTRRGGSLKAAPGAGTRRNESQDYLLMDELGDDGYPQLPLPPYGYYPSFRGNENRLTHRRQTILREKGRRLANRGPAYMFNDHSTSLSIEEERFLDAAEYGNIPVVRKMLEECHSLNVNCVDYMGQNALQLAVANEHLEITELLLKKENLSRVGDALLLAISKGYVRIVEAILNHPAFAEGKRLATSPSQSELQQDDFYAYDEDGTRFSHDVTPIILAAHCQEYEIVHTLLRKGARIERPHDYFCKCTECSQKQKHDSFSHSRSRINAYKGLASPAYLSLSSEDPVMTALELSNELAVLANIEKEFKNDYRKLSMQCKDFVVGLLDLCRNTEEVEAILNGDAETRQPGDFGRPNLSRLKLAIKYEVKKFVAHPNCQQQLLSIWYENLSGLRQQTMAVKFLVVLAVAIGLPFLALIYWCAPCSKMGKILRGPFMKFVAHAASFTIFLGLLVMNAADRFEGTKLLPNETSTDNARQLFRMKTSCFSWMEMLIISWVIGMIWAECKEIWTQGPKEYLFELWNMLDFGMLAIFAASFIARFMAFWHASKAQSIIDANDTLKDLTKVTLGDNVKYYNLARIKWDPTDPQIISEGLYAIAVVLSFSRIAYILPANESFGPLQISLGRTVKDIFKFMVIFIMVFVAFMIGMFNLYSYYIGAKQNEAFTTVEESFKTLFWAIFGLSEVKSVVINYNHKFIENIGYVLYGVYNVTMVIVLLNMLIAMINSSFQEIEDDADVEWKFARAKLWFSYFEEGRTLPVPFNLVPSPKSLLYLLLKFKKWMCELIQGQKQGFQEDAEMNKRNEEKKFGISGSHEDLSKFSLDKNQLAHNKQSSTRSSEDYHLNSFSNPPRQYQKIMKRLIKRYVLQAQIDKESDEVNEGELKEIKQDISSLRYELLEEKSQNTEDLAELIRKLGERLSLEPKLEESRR

[2] = target: T2, Short transient receptor potential channel 3 (Homo sapiens, UniProt Q13507); assay: Inhibition of human TRPC3 expressed in HEK293 cells assessed as reduction in carbachol-induced membrane potential by FMP-2 dye based assay
T2 sequence (Q13507 whole entry): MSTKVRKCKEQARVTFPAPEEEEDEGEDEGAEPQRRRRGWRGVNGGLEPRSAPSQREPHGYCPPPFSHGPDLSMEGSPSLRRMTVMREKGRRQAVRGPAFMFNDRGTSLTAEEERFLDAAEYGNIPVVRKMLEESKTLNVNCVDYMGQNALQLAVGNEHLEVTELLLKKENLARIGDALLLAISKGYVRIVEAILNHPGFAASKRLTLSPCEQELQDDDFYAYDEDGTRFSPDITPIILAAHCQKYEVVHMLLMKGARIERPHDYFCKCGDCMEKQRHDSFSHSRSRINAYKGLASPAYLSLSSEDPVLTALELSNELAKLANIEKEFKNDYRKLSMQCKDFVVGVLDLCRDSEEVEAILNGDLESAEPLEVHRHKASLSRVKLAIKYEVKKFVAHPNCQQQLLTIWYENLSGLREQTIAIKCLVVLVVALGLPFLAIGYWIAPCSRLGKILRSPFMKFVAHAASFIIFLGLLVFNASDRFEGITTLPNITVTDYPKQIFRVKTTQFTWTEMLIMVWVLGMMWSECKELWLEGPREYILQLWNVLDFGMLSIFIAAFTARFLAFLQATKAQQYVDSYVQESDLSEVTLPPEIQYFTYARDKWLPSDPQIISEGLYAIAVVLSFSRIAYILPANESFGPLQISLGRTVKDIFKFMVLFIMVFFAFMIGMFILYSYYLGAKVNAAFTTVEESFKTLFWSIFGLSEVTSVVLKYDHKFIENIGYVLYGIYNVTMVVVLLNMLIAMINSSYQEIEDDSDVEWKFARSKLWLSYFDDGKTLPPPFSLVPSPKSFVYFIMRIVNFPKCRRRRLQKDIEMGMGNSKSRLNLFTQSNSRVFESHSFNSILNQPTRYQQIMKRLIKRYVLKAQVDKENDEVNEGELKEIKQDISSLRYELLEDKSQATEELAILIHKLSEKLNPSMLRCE

[3] = target: T3, Short transient receptor potential channel 4 (Mus musculus, UniProt Q9QUQ5); assay: Inhibition of mouse TRPC4 beta expressed in HEK293 cells co-expressing mu-opioid receptor assessed as reduction in DAMGO-induced membrane potential by FMP-2 dye based assay
T3 sequence (Q9QUQ5 whole entry): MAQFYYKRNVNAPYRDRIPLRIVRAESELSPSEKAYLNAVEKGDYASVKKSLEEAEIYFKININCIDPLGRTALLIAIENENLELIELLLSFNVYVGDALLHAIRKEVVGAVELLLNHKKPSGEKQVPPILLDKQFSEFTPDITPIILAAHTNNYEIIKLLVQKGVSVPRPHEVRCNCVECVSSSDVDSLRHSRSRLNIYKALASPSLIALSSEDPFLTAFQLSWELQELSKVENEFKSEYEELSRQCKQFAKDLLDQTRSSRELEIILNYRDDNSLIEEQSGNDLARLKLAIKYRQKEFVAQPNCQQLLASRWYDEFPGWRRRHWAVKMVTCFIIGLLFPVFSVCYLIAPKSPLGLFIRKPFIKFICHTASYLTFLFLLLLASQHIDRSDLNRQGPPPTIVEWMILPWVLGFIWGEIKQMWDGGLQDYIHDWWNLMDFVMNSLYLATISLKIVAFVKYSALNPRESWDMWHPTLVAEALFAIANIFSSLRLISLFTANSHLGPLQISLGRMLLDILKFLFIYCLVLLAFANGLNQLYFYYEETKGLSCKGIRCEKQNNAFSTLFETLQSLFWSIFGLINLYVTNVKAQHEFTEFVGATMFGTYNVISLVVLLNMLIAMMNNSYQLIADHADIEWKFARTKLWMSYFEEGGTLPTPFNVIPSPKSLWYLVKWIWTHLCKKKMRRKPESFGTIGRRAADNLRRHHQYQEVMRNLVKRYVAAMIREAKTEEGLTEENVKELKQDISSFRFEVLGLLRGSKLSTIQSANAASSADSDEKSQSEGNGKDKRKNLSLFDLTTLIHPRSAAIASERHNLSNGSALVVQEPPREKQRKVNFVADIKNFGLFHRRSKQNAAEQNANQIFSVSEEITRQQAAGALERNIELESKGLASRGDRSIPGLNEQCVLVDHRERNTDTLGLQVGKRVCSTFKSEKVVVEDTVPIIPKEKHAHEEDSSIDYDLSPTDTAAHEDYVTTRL

In the case of `c1ccc2[nH]c(N3CCCC3)nc2c1`, the IC50 [1] is reported as greater than 100 µM, the IC50 [2] is reported as greater than 100 µM and the IC50 [3] is reported as 5.5 µM.

`c1ccc2[nH]c(NC34CC5CC(CC(C5)C3)C4)nc2c1` showed an IC50 [1] greater than 100 µM, an IC50 [2] greater than 100 µM and an IC50 [3] of 10.2 µM.

For `CC1CCCCN1c1nc2ccccc2[nH]1` (stereo not drawn), the IC50 [1] was greater than 100 µM, the IC50 [2] was greater than 100 µM and the IC50 [3] was 4.3 µM.

For `CC1CCN(c2nc3cc(Cl)ccc3[nH]2)CC1`, the IC50 [1] was 57.1 µM, the IC50 [2] was 30.4 µM and the IC50 [3] was 4.1 µM.

With `c1ccc2[nH]c(N3CCCCC3)nc2c1` the IC50 [1] was greater than 100 µM, the IC50 [2] was greater than 100 µM and the IC50 [3] was 11 µM.

Compound `CC1CCN(c2nc3ccccc3[nH]2)CC1` has an IC50 [1] of 63.8 µM, an IC50 [2] of 19.3 µM and an IC50 [3] of 5.2 µM.
